Measurements reported in ChEMBL document CHEMBL4483862, “Open-source discovery of chemical leads for next-generation chemoprotective antimalarials” (2018).

Tested on: Plasmodium berghei
Assay: Luciferase/luciferin-expressing antifolate-resistant parasites were used to infect a culture of HepG2 cells that were pre-incubated with compounds. Infected hepatocytes emit light due to the luciferase reaction. Assay results are presented as the percent inhibition of light emission compared to control. […]
Format: functional
Conditions: sporozoite; for IC90: read-out: LUCIFERASE INFECTION ASSAY - IC90

Cc1noc(/C=C/c2nn(C)cc2Cl)c1[N+](=O)[O-]
IC50 (HEPG2TOX_HILL_SLOPE 8.49, HEPG2TOX_R_SQUARED 0.211, PBLUC_HILL_SLOPE 2.15, PBLUC_R_SQUARED 0.722, read-out: LUCIFERASE INFECTION ASSAY - IC50): 4.22 µM | IC90: 11.7 µM

C[n+]1c(-c2ccccc2)cc(CCCCc2cc(-c3ccccc3)[n+](C)c(-c3ccccc3)c2)cc1-c1ccccc1
IC50 (HEPG2TOX_HILL_SLOPE 8.54, HEPG2TOX_R_SQUARED 0.649, PBLUC_HILL_SLOPE 17.9, PBLUC_R_SQUARED 0.599, read-out: LUCIFERASE INFECTION ASSAY - IC50): 9.47 µM | IC90: > 10 µM

C=CCNc1nc2cc(-c3ccccc3C)sc2c(=O)n1C
IC50 (HEPG2TOX_HILL_SLOPE 8.49, HEPG2TOX_R_SQUARED 0.617, read-out: LUCIFERASE INFECTION ASSAY - IC50): > 10.6 µM | IC90: > 10.6 µM

COc1ccc(-c2cnc(N)c(-c3ccc(O)c(OC)c3)c2)cc1
IC50 (HEPG2TOX_HILL_SLOPE 8.61, HEPG2TOX_R_SQUARED 0.753, PBLUC_HILL_SLOPE 13.4, PBLUC_R_SQUARED 0.628, read-out: LUCIFERASE INFECTION ASSAY - IC50): 3.2 µM | IC90: 3.77 µM

Cc1cccc(-c2nc3ccnc(Nc4ccc(C(C)C)cc4)c3[nH]2)c1
IC50 (HEPG2TOX_HILL_SLOPE 8.42, HEPG2TOX_R_SQUARED 0.9, PBLUC_HILL_SLOPE 13.4, PBLUC_R_SQUARED 0.519, read-out: LUCIFERASE INFECTION ASSAY - IC50): 8.58 µM | IC90: > 10 µM

O=C(Nc1ccc(OC(F)(F)F)cc1)Nc1ccc(Sc2ccccc2)nc1Sc1ccccc1
IC50 (HEPG2TOX_HILL_SLOPE 8.48, HEPG2TOX_R_SQUARED 0.476, PBLUC_HILL_SLOPE 1.76, PBLUC_R_SQUARED 0.832, read-out: LUCIFERASE INFECTION ASSAY - IC50): 0.339 µM | IC90: 1.18 µM

COc1cc(OC)c(C2NC(=O)c3ccc(Cl)cc3N2)cc1OC (configuration not stated)
IC50 (HEPG2TOX_HILL_SLOPE 8.48, HEPG2TOX_R_SQUARED 0.352, read-out: LUCIFERASE INFECTION ASSAY - IC50): > 10 µM | IC90: > 10 µM

COc1cc(OC)cc(C(=O)Nc2nc3ccc(C)cn3c2C(=O)NC2CCCC2)c1
IC50 (HEPG2TOX_HILL_SLOPE 8.61, HEPG2TOX_R_SQUARED 0.625, PBLUC_HILL_SLOPE 3.28, PBLUC_R_SQUARED 0.589, read-out: LUCIFERASE INFECTION ASSAY - IC50): 3.16 µM | IC90: 6.19 µM

Cc1ccc2nc(NC(=O)c3cc(F)ccc3F)c(C(=O)NCC(C)C)n2c1
IC50 (HEPG2TOX_HILL_SLOPE 8.58, HEPG2TOX_R_SQUARED 0.935, PBLUC_HILL_SLOPE 15.1, PBLUC_R_SQUARED 0.738, read-out: LUCIFERASE INFECTION ASSAY - IC50): 2.71 µM | IC90: 3.13 µM

O=C(NCc1sccc1CSc1ccc(Cl)cc1)Nc1cccc(C(F)(F)F)c1
IC50 (HEPG2TOX_HILL_SLOPE 8.54, HEPG2TOX_R_SQUARED 0.938, PBLUC_HILL_SLOPE 7.51, PBLUC_R_SQUARED 0.41, read-out: LUCIFERASE INFECTION ASSAY - IC50): 3.79 µM | IC90: 5.08 µM

CN(C)S(=O)(=O)c1ccc(N2CCCC2)c(C(=O)Nc2nc(-c3ccccn3)cs2)c1
IC50 (HEPG2TOX_HILL_SLOPE 8.6, HEPG2TOX_R_SQUARED 0.463, PBLUC_HILL_SLOPE 5.89, PBLUC_R_SQUARED 0.378, read-out: LUCIFERASE INFECTION ASSAY - IC50): 6.68 µM | IC90: 9.7 µM

CS(=O)(=O)Nc1ccc(-c2csc(NC(=O)c3sc4sccc4c3Cl)n2)cc1
IC50 (HEPG2TOX_HILL_SLOPE 8.43, HEPG2TOX_R_SQUARED 0.307, PBLUC_HILL_SLOPE 11.2, PBLUC_R_SQUARED 0.136, read-out: LUCIFERASE INFECTION ASSAY - IC50): 7.99 µM | IC90: 9.72 µM

CC(=O)c1cccc(-c2cnc3ccc(-c4cccc(C(F)(F)F)c4)nn23)c1
IC50 (HEPG2TOX_HILL_SLOPE 8.49, HEPG2TOX_R_SQUARED 0.595, PBLUC_HILL_SLOPE 2.29, PBLUC_R_SQUARED 0.849, read-out: LUCIFERASE INFECTION ASSAY - IC50): 1.64 µM | IC90: 4.27 µM

O=C(NC1CC1)c1ccc(-c2cnc3c(Nc4cccc(OC(F)(F)C(F)F)c4)nccn23)cc1
IC50 (HEPG2TOX_HILL_SLOPE 8.49, HEPG2TOX_R_SQUARED 0.235, PBLUC_HILL_SLOPE 3.35, PBLUC_R_SQUARED 0.643, read-out: LUCIFERASE INFECTION ASSAY - IC50): 1.29 µM | IC90: 2.49 µM

Clc1ccc(CSC2=NNC(c3ccccn3)S2)cc1 (configuration not stated)
IC50 (HEPG2TOX_HILL_SLOPE 8.57, HEPG2TOX_R_SQUARED 0.799, PBLUC_HILL_SLOPE 12, PBLUC_R_SQUARED 0.743, read-out: LUCIFERASE INFECTION ASSAY - IC50): 7.86 µM | IC90: 9.43 µM

Cc1cc(-c2ccccc2)c(-c2nc3ccccc3[nH]2)[nH]1
IC50 (HEPG2TOX_HILL_SLOPE 8.44, HEPG2TOX_R_SQUARED 0.516, PBLUC_HILL_SLOPE 11.1, PBLUC_R_SQUARED 0.785, read-out: LUCIFERASE INFECTION ASSAY - IC50): 1.13 µM | IC90: 1.38 µM

Cc1cc(C(=O)COC(=O)c2ccccc2S(=O)(=O)N(C)c2ccccc2)c(C)n1C1CC1
IC50 (HEPG2TOX_HILL_SLOPE 8.61, HEPG2TOX_R_SQUARED 0.607, read-out: LUCIFERASE INFECTION ASSAY - IC50): > 10 µM | IC90: > 10 µM

O=C(Nc1cc(C(F)(F)F)cc(C(F)(F)F)c1)Nc1cnn(-c2ccccc2)c1C(F)(F)F
IC50 (HEPG2TOX_HILL_SLOPE 8.4, HEPG2TOX_R_SQUARED 0.935, PBLUC_HILL_SLOPE 10.9, PBLUC_R_SQUARED 0.166, read-out: LUCIFERASE INFECTION ASSAY - IC50): 2.19 µM | IC90: 2.67 µM

CCOc1cc(C(=O)N/N=C/c2c(C)[nH]c3ccccc23)cc(OCC)c1OCC
IC50 (HEPG2TOX_HILL_SLOPE 8.54, 2.60, HEPG2TOX_R_SQUARED 0.0840, 0.979, PBLUC_HILL_SLOPE 9.58, PBLUC_R_SQUARED 0.194, read-out: LUCIFERASE INFECTION ASSAY - IC50): 9.1 µM | IC90: > 10 µM

COc1ccc(Cn2nc(-c3ccccc3)cc2-c2ccccc2O)cc1
IC50 (HEPG2TOX_HILL_SLOPE 8.58, HEPG2TOX_R_SQUARED 0.567, PBLUC_HILL_SLOPE 13.6, PBLUC_R_SQUARED 0.554, read-out: LUCIFERASE INFECTION ASSAY - IC50): 1.13 µM | IC90: 1.33 µM

Cc1cc(-c2ccccc2)nc2c1/C(=N\O)CC(C)(C)C2
IC50 (HEPG2TOX_HILL_SLOPE 8.55, HEPG2TOX_R_SQUARED 0.808, PBLUC_HILL_SLOPE 3.52, PBLUC_R_SQUARED 0.12, read-out: LUCIFERASE INFECTION ASSAY - IC50): 8.87 µM | IC90: > 11.8 µM

COc1ccc(-c2c(C)nn3c(NCc4ccccn4)cc(C)nc23)cc1OC
IC50 (HEPG2TOX_HILL_SLOPE 8.52, HEPG2TOX_R_SQUARED 0.776, PBLUC_HILL_SLOPE 1.28, PBLUC_R_SQUARED 0.799, read-out: LUCIFERASE INFECTION ASSAY - IC50): 1.34 µM | IC90: 7.49 µM

COc1ccccc1-c1nc2c3c(C)c(C)n(-c4ccccc4OC)c3ncn2n1
IC50 (HEPG2TOX_HILL_SLOPE 8.61, HEPG2TOX_R_SQUARED 0.202, PBLUC_HILL_SLOPE 3.56, PBLUC_R_SQUARED 0.654, read-out: LUCIFERASE INFECTION ASSAY - IC50): 4.05 µM | IC90: 7.51 µM

COc1ccc(CCN2C(=O)N(C(C)C)C(=O)C23CCN(Cc2cc4ccccc4[nH]2)CC3)cc1
IC50 (HEPG2TOX_HILL_SLOPE 8.55, HEPG2TOX_R_SQUARED 0.942, PBLUC_HILL_SLOPE 15.5, PBLUC_R_SQUARED 0.628, read-out: LUCIFERASE INFECTION ASSAY - IC50): 5.75 µM | IC90: 6.63 µM

OC(c1cc(C(F)(F)F)cc(C(F)(F)F)c1)c1cc(C(F)(F)F)cc(C(F)(F)F)c1
IC50 (HEPG2TOX_HILL_SLOPE 8.63, HEPG2TOX_R_SQUARED 0.166, read-out: LUCIFERASE INFECTION ASSAY - IC50): > 7.23 µM | IC90: > 7.23 µM

CC(C)(C)c1ccc(-c2csc(NC(=O)c3cnccn3)n2)cc1
IC50 (HEPG2TOX_HILL_SLOPE 8.57, HEPG2TOX_R_SQUARED 0.595, PBLUC_HILL_SLOPE 12.7, PBLUC_R_SQUARED 0.201, read-out: LUCIFERASE INFECTION ASSAY - IC50): 9.05 µM | IC90: > 10 µM

COc1cc(-c2cnc3c(Nc4cccc(OC(F)(F)C(F)F)c4)nccn23)cc(OC)c1OC
IC50 (HEPG2TOX_HILL_SLOPE 8.4, HEPG2TOX_R_SQUARED 0.356, PBLUC_HILL_SLOPE 3.39, PBLUC_R_SQUARED 0.397, read-out: LUCIFERASE INFECTION ASSAY - IC50): 2.81 µM | IC90: 5.38 µM

OC(CN1CC=C(c2c[nH]c3ccccc23)CC1)c1ccccc1 (configuration not stated)
IC50 (HEPG2TOX_HILL_SLOPE 8.59, HEPG2TOX_R_SQUARED 0.892, PBLUC_HILL_SLOPE 2.5, PBLUC_R_SQUARED 0.397, read-out: LUCIFERASE INFECTION ASSAY - IC50): 5.3 µM | IC90: > 10 µM

CS(=O)(=O)Nc1cccc(CNC(=O)c2cccc3c4c([nH]c23)CCCC4)c1
IC50 (HEPG2TOX_HILL_SLOPE 8.62, HEPG2TOX_R_SQUARED 0.723, PBLUC_HILL_SLOPE 1.82, PBLUC_R_SQUARED 0.711, read-out: LUCIFERASE INFECTION ASSAY - IC50): 5.31 µM | IC90: > 10 µM

N#Cc1ccc(-c2cnc3ccc(NCc4ccc(S(N)(=O)=O)cc4)nn23)cc1
IC50 (HEPG2TOX_HILL_SLOPE 8.58, HEPG2TOX_R_SQUARED 0.551, PBLUC_HILL_SLOPE 11.6, PBLUC_R_SQUARED 0.236, read-out: LUCIFERASE INFECTION ASSAY - IC50): 3.03 µM | IC90: 3.66 µM

CC(C)c1ccc(N2C(=O)C=CC2=O)cc1
IC50 (HEPG2TOX_HILL_SLOPE 8.61, HEPG2TOX_R_SQUARED 0.25, PBLUC_HILL_SLOPE 3.82, PBLUC_R_SQUARED 0.327, read-out: LUCIFERASE INFECTION ASSAY - IC50): 9.69 µM | IC90: > 15.3 µM
